Read-outs that look alike come from different tables or passages of the source.
Assays:
[1] = system: H929 human cancer cell lines; experiment: Cellular viability / proliferation (Cell TiterGlo, 72 h); type: cell-based
How it was run: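 Compounds were added as 2-fold serial dilutions from 50 μM (final DMSO <1%) to H929 cells seeded 1,000 per well in 10% FBS medium one day earlier.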

[2] = biological target: Mcl-1 (Homo sapiens (Human), UniProt Q07820); experiment: Fluorescence polarization anisotropy (FPA) competition assay, FITC-Bak or FITC-Bim BH3 peptide; type: binding; conditions: read-out: Ki for Inhibition of Mcl-1 by FPA assay
Sequence of Mcl-1 (Q07820 172-327): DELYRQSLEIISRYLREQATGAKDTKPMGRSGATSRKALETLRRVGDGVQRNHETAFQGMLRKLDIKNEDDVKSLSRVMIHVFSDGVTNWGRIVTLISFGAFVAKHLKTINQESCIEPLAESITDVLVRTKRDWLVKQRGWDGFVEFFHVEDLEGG

[3] = Homo sapiens, NCI-H929, 72 h, read-out: GI50 on cellular proliferation of H929 human cancer cell lines, H929 cells, 72 h, Cell TiterGlo, 10% FBS
[4] = H929 cells, 72 h, Cell TiterGlo, 10% FBS, read-out: GI50 on cellular proliferation of H929 human cancer cell lines

SMILES | GI50 [1, 3] | Ki [2] | GI50 ([1]; read-out: GI50 on cellular proliferation of H929 human cancer cell lines, H929 cells, 72 h, Cell TiterGlo, 10% FBS) | GI50 [1, 4]
Cc1cc(N2C[C@@H](C)n3c(c(CCCOc4cc(C)c(Cl)c(C)c4)c4ccc(Cl)c(-c5c(C)ncnc5C)c43)C2=O)c2c(c1)cc(C(N)=O)n2Cc1ccccn1 [Example 379, (R)-7-(7-chloro-10-(3-(4-chloro-3,5-dimethylphenoxy)propyl)-6-(4,6-dimethylpyrimidin-5-yl)-4-methyl-1-oxo-3,4-dihydropyrazino[1,2-a]indol-2(1H)-yl)-5-methyl-1-(pyridin-2-ylmethyl)-1H-indole-2-carboxamide] | 560 nM | 3.6 nM |  | 
Cc1cc(N2C[C@@H](C)n3c(c(CCCOc4cc(C)c(Cl)c(C)c4)c4ccc(Cl)c(-c5c(C)nn(C)c5C)c43)C2=O)c2c(c1)c(C(=O)O)cn2C [Example 162, (R)-7-(7-chloro-10-(3-(4-chloro-3,5-dimethylphenoxy)propyl)-4-methyl-1-oxo-6-(1,3,5-trimethyl-1H-pyrazol-4-yl)-3,4-dihydropyrazino[1,2-a]indol-2(1H)-yl)-1,5-dimethyl-1H-indole-3-carboxylic acid] |  | < 1 nM | 260 nM | 
Cc1cc(OCCCc2c3n(c4c(-c5c(C)nn(C)c5C)c(Cl)ccc24)[C@H](C)CN(c2ccnc4ccc(C(=O)O)cc24)C3=O)cc(C)c1Cl [Example 172, (R)-4-(7-Chloro-10-(3-(4-chloro-3,5-dimethylphenoxy)propyl)-4-methyl-1-oxo-6-(1,3,5-trimethyl-1H-pyrazol-4-yl)-3,4-dihydropyrazino[1,2-a]indol-2(1H)-yl)quinoline-6-carboxylic acid] | 320 nM | < 1 nM |  | 
Cc1cc(OCCCc2c3n(c4c(-c5c(C)nn(C)c5C)c(Cl)ccc24)[C@H](C)CN(c2cn(C)c4ccc(C#N)cc24)C3=O)cc(C)c1Cl [Example 208, (R)-3-(7-Chloro-10-(3-(4-chloro-3,5-dimethylphenoxy)propyl)-4-methyl-1-oxo-6-(1,3,5-trimethyl-1H-pyrazol-4-yl)-3,4-dihydropyrazino[1,2-a]indol-2(1H)-yl)-1-methyl-1H-indole-5-carbonitrile] | 1600 nM | < 1 nM |  | 
Cc1cc(OCCCc2c3n(c4c(-c5c(C)nn(C)c5C)c(Cl)ccc24)[C@H](C)CN(c2cccc4cc(C(N)=O)n(Cc5ccccn5)c24)C3=O)cc(C)c1Cl [Example 385, (R)-7-(7-Chloro-10-(3-(4-chloro-3,5-dimethylphenoxy)propyl)-4-methyl-1-oxo-6-(1,3,5-trimethyl-1H-pyrazol-4-yl)-3,4-dihydropyrazino[1,2-a]indol-2(1H)-yl)-1-(pyridin-2-ylmethyl)-1H-indole-2-carboxamide] | 510 nM | 4.1 nM |  | 
Cc1cc(OCCCc2c3n(c4c(-c5c(C)nn(C)c5C)c(Cl)ccc24)[C@H](C)CN(c2cccc4cc5n(c24)CCNC5=O)C3=O)cc(C)c1Cl [Example 434, (R)-7-Chloro-10-(3-(4-chloro-3,5-dimethylphenoxy)propyl)-4-methyl-6-(1,3,5-trimethyl-1H-pyrazol-4-yl)-3,3′,4,4′-tetrahydro-1H-[2,6′-bipyrazino[1,2-a]indole]-1,1′(2′H)-dione] | 890 nM | 5.5 nM |  | 
Cc1cc(OCCCc2c3n(c4c(-c5c(C)nn(C)c5C)c(Cl)ccc24)[C@H](C)CN(c2ccc4c(c2)c(C(=O)O)cn4C)C3=O)cc(C)c1Cl [Example 171, (R)-5-(7-Chloro-10-(3-(4-chloro-3,5-dimethylphenoxy)propyl)-4-methyl-1-oxo-6-(1,3,5-trimethyl-1H-pyrazol-4-yl)-3,4-dihydropyrazino[1,2-a]indol-2(1H)-yl)-1-methyl-1H-indole-3-carboxylic acid] | 1500 nM | < 1 nM |  | 
Cc1cc(OCCCc2c3n(c4c(-c5c(C)nn(C)c5C)c(Cl)ccc24)[C@H](C)CN(c2cc(OCc4ccccc4)cc4cc(C(=O)O)n(C)c24)C3=O)cc(C)c1Cl [Example 345, (P, R)-5-(Benzyloxy)-7-(7-chloro-10-(3-(4-chloro-3,5-dimethylphenoxy)propyl)-4-methyl-1-oxo-6-(1,3,5-trimethyl-1H-pyrazol-4-yl)-3,4-dihydropyrazino[1,2-a]indol-2(1H)-yl)-1-methyl-1H-indole-2-carboxylic acid] |  | 3.5 nM |  | 1800 nM
Cc1cc(OCCCc2c3n(c4c(-c5c(C)nn(C)c5C)c(Cl)ccc24)[C@H](C)CN(c2cccc4c2cc(-c2nn[nH]n2)n4C)C3=O)cc(C)c1Cl [Example 307, (4R)-7-chloro-10-[3-(4-chloro-3,5-dimethyl-phenoxy)propyl]-4-methyl-2-[1-methyl-2-(2H-tetrazol-5-yl)indol-4-yl]-6-(1,3,5-trimethylpyrazol-4-yl)-3,4-dihydropyrazino[1,2-a]indol-1-one] | 3500 nM | 1.3 nM |  | 
Cc1cc(OCCCc2c3n(c4c(-c5c(C)nn(C)c5C)c(Cl)ccc24)[C@H](C)CN(c2cccc4c(Cl)cc(C(=O)O)nc24)C3=O)cc(C)c1Cl [Example 230, (R)-4-Chloro-8-(7-chloro-10-(3-(4-chloro-3,5-dimethylphenoxy)propyl)-4-methyl-1-oxo-6-(1,3,5-trimethyl-1H-pyrazol-4-yl)-3,4-dihydropyrazino[1,2-a]indol-2(1H)-yl)quinoline-2-carboxylic acid] | 890 nM | < 1 nM |  | 
COC(=O)c1ccc2c(c1)c(N1C[C@@H](C)n3c(c(CCCOc4cc(C)c(Cl)c(C)c4)c4ccc(Cl)c(-c5c(C)nn(C)c5C)c43)C1=O)cn2C (single isomer, unassigned) [Example 204] | 1000 nM | 1.1 nM |  | 
COCCn1c(C(N)=O)cc2cccc(N3C[C@@H](C)n4c(c(CCCOc5cc(C)c(Cl)c(C)c5)c5ccc(Cl)c(-c6c(C)nn(C)c6C)c54)C3=O)c21 [Example 354, (R)-7-(7-Chloro-10-(3-(4-chloro-3,5-dimethylphenoxy)propyl)-4-methyl-1-oxo-6-(1,3,5-trimethyl-1H-pyrazol-4-yl)-3,4-dihydropyrazino[1,2-a]indol-2(1H)-yl)-1-(2-methoxyethyl)-1H-indole-2-carboxamide] | 580 nM | 4.3 nM |  | 
Cc1cc(N2C[C@@H](C)n3c(c(CCCOc4cc(C)c(Cl)c(C)c4)c4ccc(Cl)c(-c5c(C)nn(C)c5C)c43)C2=O)c2c(c1)c(C(=O)O)cn2C [Example 159, (R)-7-(7-chloro-10-(3-(4-chloro-3,5-dimethylphenoxy)propyl)-4-methyl-1-oxo-6-(1,3,5-trimethyl-1H-pyrazol-4-yl)-3,4-dihydropyrazino[1,2-a]indol-2(1H)-yl)-1,5-dimethyl-1H-indole-3-carboxylic acid] | 290 nM | < 1 nM |  | 
Cc1cc(OCCCc2c3n(c4c(-c5c(C)nn(C)c5C)c(Cl)ccc24)[C@H](C)CN(c2ccc4c(C(=O)O)cccc4n2)C3=O)cc(C)c1Cl [Example 157, (R)-2-(7-Chloro-10-(3-(4-chloro-3,5-dimethylphenoxy)propyl)-4-methyl-1-oxo-6-(1,3,5-trimethyl-1H-pyrazol-4-yl)-3,4-dihydropyrazino[1,2-a]indol-2(1H)-yl)quinoline-5-carboxylic acid] | 6400 nM | 2.5 nM |  | 
COc1cc(C(=O)O)cc(N2CCCn3c(c(CCCOc4cc(C)c(Cl)c(C)c4)c4ccc(Cl)c(-c5c(C)nn(C)c5C)c43)C2=O)c1OCCOc1ccccc1F [Example 65, 3-[8-Chloro-11-[3-(4-chloro-3,5-dimethyl-phenoxy)propyl]-1-oxo-7-(1,3,5-trimethylpyrazol-4-yl)-4,5-dihydro-3H-[1,4]diazepino[1,2-a]indol-2-yl]-4-[2-(2-fluorophenoxy)ethoxy]-5-methoxy-benzoic acid] | 5500 nM | 3.1 nM |  | 
COc1ccnc(-c2ccc3c(c2)c(N2C[C@@H](C)n4c(c(CCCOc5cc(C)c(Cl)c(C)c5)c5ccc(Cl)c(-c6c(C)nn(C)c6C)c54)C2=O)cn3C)n1 [Example 464, (R)-7-Chloro-10-(3-(4-chloro-3,5-dimethylphenoxy)propyl)-2-(5-(4-methoxypyrimidin-2-yl)-1-methyl-1H-indol-3-yl)-4-methyl-6-(1,3,5-trimethyl-1H-pyrazol-4-yl)-3,4-dihydropyrazino[1,2-a]indol-1(2H)-one] | 480 nM | 3.5 nM |  | 
Cc1cc(OCCCc2c3n(c4c(-c5c(C)nn(C)c5C)c(Cl)ccc24)[C@H](C)CN(c2cn(C)c4cc(C#N)ccc24)C3=O)cc(C)c1Cl [Example 206, (R)-3-(7-Chloro-10-(3-(4-chloro-3,5-dimethylphenoxy)propyl)-4-methyl-1-oxo-6-(1,3,5-trimethyl-1H-pyrazol-4-yl)-3,4-dihydropyrazino[1,2-a]indol-2(1H)-yl)-1-methyl-1H-indole-6-carbonitrile] | 3200 nM | < 1 nM |  | 
Cc1cc(OCCCc2c3n(c4c(-c5c(C)nn(C)c5C)c(Cl)ccc24)[C@H](C)CN(c2cc(OCc4ccccc4)cc4c2cc(C(=O)O)n4C)C3=O)cc(C)c1Cl [Example 297, (P, R)-6-(benzyloxy)-4-(7-chloro-10-(3-(4-chloro-3,5-dimethylphenoxy)propyl)-4-methyl-1-oxo-6-(1,3,5-trimethyl-1H-pyrazol-4-yl)-3,4-dihydropyrazino[1,2-a]indol-2(1H)-yl)-1-methyl-1H-indole-2-carboxylic acid] |  | 2.4 nM |  | 7900 nM
Cc1cc(N2C[C@@H](C)n3c(c(CCCOc4cc(C)c(Cl)c(C)c4)c4ccc(Cl)c(-c5c(C)nn(CCN6CCCC6)c5C)c43)C2=O)c2c(c1)cc(C(=O)O)n2C [Example 463, (R)-7-(7-Chloro-10-(3-(4-chloro-3,5-dimethylphenoxy)propyl)-6-(3,5-dimethyl-1-(2-(pyrrolidin-1-yl)ethyl)-1H-pyrazol-4-yl)-4-methyl-1-oxo-3,4-dihydropyrazino[1,2-a]indol-2(1H)-yl)-1,5-dimethyl-1H-indole-2-carboxylic acid] | 290 nM | 2.1 nM |  | 
